{"source": "patent US7579006B2", "about": "“Method of treating immune pathologies with low dose estrogen” (Oregon Health and Science University, priority 2000, dated 2009)", "key": {"[1]": {"settings": "cited from earlier work"}, "male SJL mice": {"system": "male SJL mice", "assay": "EAE induced with PLP 139-151 in male SJL mice", "format": "in vivo"}, "[2]": {"system": "draining lymph node (DLN) cells", "assay": "Flow cytometry of activation and adhesion markers on DLN cells of SJL mice with EAE", "format": "in vivo", "settings": "DLN cells at peak of EAE", "method": "Immunofluorescent staining for flow cytometry. Draining lymph node (DLN) cells were removed during the peak of clinical symptoms and analyzed for the expression of cell surface proteins by fluorescent staining ex vivo. The following fluorochrome conjugated antibodies obtained from Pharmingen Inc. (San Diego, Calif.) were used for the direct staining of DLN cells: anti-CD4, anti-CD25, anti-CD69, anti-CD95L, anti-CD44, anti-CD62L, anti-CD49d. Two-color immunofluorescent analysis was performed on a FACScan instrument (Becton Dickinson, Mountain View, Calif.) using Cellquest software. For each experiment the cells were stained with isotype control antibodies to establish background staining, and to set the quadrants prior to calculating the percent positive staining cells. […] Alterations in the expression of adhesion or activation markers on T cells are often indicative of functional changes in the cell. Monoclonal antibodies specific for a number of these markers were used to assess whether estrogen therapy altered their expression. Draining lymph node (DLN) cells were recovered from mice during the peak of clinical EAE, incubated with the indicated fluorochrome conjugated monoclonal antibodies, and surface expression measured by fluorescent activated cell analyzer."}, "DLN cells": {"system": "DLN cells", "assay": "PLP 139-151 induced cytokine production by DLN cells (ELISA)", "format": "in vivo, mice", "settings": "48-72 hours after PLP 139-151 stimulation", "method": "Cytokine detection by ELISA. DLN cells were cultured at 4×10^6/ml and stimulated with the appropriate antigen in 24 well culture plates. Cell culture supernatants were recovered between 48-72 hr and frozen at −70° C. until needed for the cytokine assay. Measurement of cytokines was performed by ELISA using cytokine specific capture and detection antibodies (Pharmingen). Standard curves for each assay were generated using recombinant mouse cytokines (Pharmingen), and the concentration of cytokines in the cell supernatants was determined by interpolation from the appropriate standard curve. IFN-γ, TNF-α and IL-12 were chosen as representative Th1 cytokines, while IL-4 and IL-10 were measured as representative Th2 cytokines.\nTo determine if low dose estrogen therapy altered cytokine secretion patterns, DLN cells were prepared from individual mice at the peak of clinical EAE and cytokine levels were measured 48-72 hours after in vitro stimulation with PLP 139-151. IFN-γ, IL-12, and TNF-α were used as representative Th1 cytokines while IL-4, and IL-10 were used as representative Th2 cytokines. […] Despite the lack of statistical significance, the trend towards higher Th1 and lower Th2 cytokines points towards a subtle shift in the Th1/Th2 balance. The shift can be seen more clearly when the cytokine response of each individual mouse is plotted as a ratio of IFN-γ to IL-10 (FIG. 5C). There was a marked decrease in the frequency of high Th1 responder mice in the E2 and E3 treated groups when compared to placebo animals that approached significance (p=0.09 for the 5.0 mg E3 treated mice). Additionally, no informative trends were detected in IL-4 secretion (FIG. 5D), and TNF-α secretion was very often below the limits of detection for the assay (<31.25 pg/ml). Modest changes in cytokine responses induced by low dose estrogen therapy were also observed in the B10.PL model and were consistent with the data described for the SJL model."}, "female SJL mice": {"system": "female SJL mice", "assay": "EAE induced with PLP 139-151 in female SJL mice (clinical scores, spinal cord histopathology)", "format": "in vivo", "settings": "for Demyelinated foci/section / Inflammatory foci/section: spinal cord at peak of disease"}, "B10.PL mice": {"system": "B10.PL mice", "assay": "EAE induced with MBP Ac1-11 in B10.PL mice", "format": "in vivo"}}, "note": "Where two headings read alike, the source gives them in different places."}
{"smiles": "C[C@]12CC[C@@H]3c4ccc(O)cc4CC[C@H]3[C@@H]1C[C@@H](O)[C@@H]2O", "note": "[Estriol, estriol]", "values": [{"measurement": "serum concentration from 60-day release pellet", "setting": "[1]; 0.025 mg pellet", "result": "10 to 20", "unit": "pg/mL"}, {"measurement": "serum concentration from 60-day release pellet", "setting": "[1]; 0.1 mg pellet", "result": "40 to 50", "unit": "pg/mL"}, {"measurement": "serum concentration from 60-day release pellet", "setting": "[1]; 0.36 mg pellet", "result": "150 to 200", "unit": "pg/mL"}, {"measurement": "serum concentration from 60-day release pellet", "setting": "[1]; 1.5 mg pellet", "result": "800-1,000 pg/ml"}, {"measurement": "serum concentration from 60-day release pellet", "setting": "[1]; 2.5 mg pellet", "result": "2,000-3,000 pg/ml"}, {"measurement": "serum concentration from 60-day release pellet", "setting": "[1]; 5 mg pellet", "result": "5,000-6,000 pg/ml"}, {"measurement": "serum concentration from 60-day release pellet", "setting": "[1]; 15 mg pellet", "result": "10,000-15,000 pg/ml"}, {"measurement": "CDI", "setting": "male SJL mice; 2.5 mg/pellet", "result": "3.2 ± 2.5"}, {"measurement": "Incidence", "setting": "male SJL mice; 2.5 mg/pellet", "result": "2/3"}, {"measurement": "Incidence (%)", "setting": "male SJL mice; 2.5 mg/pellet", "result": 67, "unit": "%"}, {"measurement": "Onset", "setting": "male SJL mice; 2.5 mg/pellet", "result": "16.5 ± 0.7", "unit": "days"}, {"measurement": "Peak (disease score)", "setting": "male SJL mice; 2.5 mg/pellet", "result": "0.67 ± 0.6"}, {"measurement": "CDI", "setting": "male SJL mice; 5.0 mg/pellet", "result": "2.6 ± 5.3"}, {"measurement": "Incidence", "setting": "male SJL mice; 5.0 mg/pellet", "result": "1/4"}, {"measurement": "Incidence (%)", "setting": "male SJL mice; 5.0 mg/pellet", "result": 25, "unit": "%"}, {"measurement": "Onset", "setting": "male SJL mice; 5.0 mg/pellet", "result": "16.0 ± 0", "unit": "days"}, {"measurement": "Peak (disease score)", "setting": "male SJL mice; 5.0 mg/pellet", "result": "0.50 ± 1.0"}, {"measurement": "CD4, % of Total", "setting": "[2]; 2.5 mg pellet", "result": 45, "unit": "%"}, {"measurement": "CD25, % of CD4+ T cells", "setting": "[2]; 2.5 mg pellet", "result": 5.5, "unit": "%"}, {"measurement": "CD44, % of CD4+ T cells", "setting": "[2]; 2.5 mg pellet", "result": 36, "unit": "%"}, {"measurement": "CD62L, % of CD4+ T cells", "setting": "[2]; 2.5 mg pellet", "result": 12, "unit": "%"}, {"measurement": "CD69, % of CD4+ T cells", "setting": "[2]; 2.5 mg pellet", "result": 7.5, "unit": "%"}, {"measurement": "CD49d, % of CD4+ T cells", "setting": "[2]; 2.5 mg pellet", "result": 36, "unit": "%"}, {"measurement": "FASL, % of CD4+ T cells", "setting": "[2]; 2.5 mg pellet", "result": 3.1, "unit": "%"}, {"measurement": "CD4, % of Total", "setting": "[2]; 5.0 mg pellet", "result": 47, "unit": "%"}, {"measurement": "CD25, % of CD4+ T cells", "setting": "[2]; 5.0 mg pellet", "result": 6.4, "unit": "%"}, {"measurement": "CD44, % of CD4+ T cells", "setting": "[2]; 5.0 mg pellet", "result": 38, "unit": "%"}, {"measurement": "CD62L, % of CD4+ T cells", "setting": "[2]; 5.0 mg pellet", "result": 8.8, "unit": "%"}, {"measurement": "CD69, % of CD4+ T cells", "setting": "[2]; 5.0 mg pellet", "result": 8.3, "unit": "%"}, {"measurement": "CD49d, % of CD4+ T cells", "setting": "[2]; 5.0 mg pellet", "result": 37, "unit": "%"}, {"measurement": "FASL, % of CD4+ T cells", "setting": "[2]; 5.0 mg pellet", "result": 2.7, "unit": "%"}, {"measurement": "IL-10 secretion by DLN cells", "setting": "DLN cells", "result": "modest increase"}, {"measurement": "IL-12 secretion by DLN cells", "setting": "DLN cells", "result": "small decrease"}, {"measurement": "secretion of IFN-γ by DLN cells", "setting": "DLN cells; p>0.10", "result": "consistently lower"}, {"measurement": "CDI (cumulative disease index)", "setting": "female SJL mice; 1.5 mg/pellet (low)", "result": "9.3 ± 2.6"}, {"measurement": "Incidence", "setting": "female SJL mice; 1.5 mg/pellet (low)", "result": "6/10"}, {"measurement": "Incidence (%)", "setting": "female SJL mice; 1.5 mg/pellet (low)", "result": "(60%)"}, {"measurement": "Onset", "setting": "female SJL mice; 1.5 mg/pellet (low)", "result": "16.4 ± 0.7", "unit": "days"}, {"measurement": "Peak (disease score)", "setting": "female SJL mice; 1.5 mg/pellet (low)", "result": "2.0 ± 0.0"}, {"measurement": "Relapse", "setting": "female SJL mice; 1.5 mg/pellet (low)", "result": "0/3"}, {"measurement": "Relapse (%)", "setting": "female SJL mice; 1.5 mg/pellet (low)", "result": "(0%)"}, {"measurement": "Demyelinated foci/section", "setting": "female SJL mice; 2.5 mg pellet", "result": "0.8 ± 0.2", "unit": "foci/section"}, {"measurement": "Inflammatory foci/section", "setting": "female SJL mice; 2.5 mg pellet", "result": "1.2 ± 0.6", "unit": "foci/section"}, {"measurement": "Demyelinated foci/section", "setting": "female SJL mice; 5.0 mg pellet", "result": "0.3 ± 0.2", "unit": "foci/section"}, {"measurement": "Inflammatory foci/section", "setting": "female SJL mice; 5.0 mg pellet", "result": "0.9 ± 0.5", "unit": "foci/section"}, {"measurement": "CDI (cumulative disease index)", "setting": "female SJL mice; 5.0 mg/pellet (pregnancy)", "result": "6.5 ± 9"}, {"measurement": "Incidence", "setting": "female SJL mice; 5.0 mg/pellet (pregnancy)", "result": "2/5"}, {"measurement": "Incidence (%)", "setting": "female SJL mice; 5.0 mg/pellet (pregnancy)", "result": "(40%)"}, {"measurement": "Onset", "setting": "female SJL mice; 5.0 mg/pellet (pregnancy)", "result": "33.5 ± 5.0", "unit": "days"}, {"measurement": "Peak (disease score)", "setting": "female SJL mice; 5.0 mg/pellet (pregnancy)", "result": "1.4 ± 2.2"}, {"measurement": "Relapse", "setting": "female SJL mice; 5.0 mg/pellet (pregnancy)", "result": "0/2"}, {"measurement": "Relapse (%)", "setting": "female SJL mice; 5.0 mg/pellet (pregnancy)", "result": "(0%)"}, {"measurement": "CDI (cumulative disease index)", "setting": "female SJL mice; 15.0 mg/pellet (high)", "result": "4.4 ± 3.5"}, {"measurement": "Incidence", "setting": "female SJL mice; 15.0 mg/pellet (high)", "result": "5/10"}, {"measurement": "Incidence (%)", "setting": "female SJL mice; 15.0 mg/pellet (high)", "result": "(50%)"}, {"measurement": "Onset", "setting": "female SJL mice; 15.0 mg/pellet (high)", "result": "23.8 ± 9", "unit": "days"}, {"measurement": "Peak (disease score)", "setting": "female SJL mice; 15.0 mg/pellet (high)", "result": "1.4 ± 1.1"}, {"measurement": "Relapse", "setting": "female SJL mice; 15.0 mg/pellet (high)", "result": "0/1"}, {"measurement": "Relapse (%)", "setting": "female SJL mice; 15.0 mg/pellet (high)", "result": "(0%)"}, {"measurement": "comparison of E2 and E3 in incidence or severity of EAE", "setting": "female SJL mice; Fisher exact test, same animal model", "result": "equally protective"}, {"measurement": "CDI", "setting": "B10.PL mice; 1.5 mg/pellet (low)", "result": "1.9 ± 1.7"}, {"measurement": "Incidence", "setting": "B10.PL mice; 1.5 mg/pellet (low)", "result": "5/8"}, {"measurement": "Incidence (%)", "setting": "B10.PL mice; 1.5 mg/pellet (low)", "result": 38, "unit": "%"}, {"measurement": "Onset", "setting": "B10.PL mice; 1.5 mg/pellet (low)", "result": "30.3 ± 0.9", "unit": "days"}, {"measurement": "Peak (disease score)", "setting": "B10.PL mice; 1.5 mg/pellet (low)", "result": "1.38 ± 0.8"}, {"measurement": "CDI", "setting": "B10.PL mice; 5 mg/pellet (pregnancy)", "result": "1.0 ± 0.5"}, {"measurement": "Incidence", "setting": "B10.PL mice; 5 mg/pellet (pregnancy)", "result": "3/8"}, {"measurement": "Incidence (%)", "setting": "B10.PL mice; 5 mg/pellet (pregnancy)", "result": 38, "unit": "%"}, {"measurement": "Onset", "setting": "B10.PL mice; 5 mg/pellet (pregnancy)", "result": "31.3 ± 0.7", "unit": "days"}, {"measurement": "Peak (disease score)", "setting": "B10.PL mice; 5 mg/pellet (pregnancy)", "result": "0.71 ± 0.4"}, {"measurement": "inhibitory effect on EAE compared with 17β-estradiol", "setting": "B10.PL mice; B10.PL females", "result": "equivalent inhibitory effect on EAE"}]}
